Holding throughout (assay): KinaseProfiler Assay
For assay [1], the target named is T1, PKCε(h) (Homo sapiens, UniProt Q02156).
T1 sequence (Q02156 1-737): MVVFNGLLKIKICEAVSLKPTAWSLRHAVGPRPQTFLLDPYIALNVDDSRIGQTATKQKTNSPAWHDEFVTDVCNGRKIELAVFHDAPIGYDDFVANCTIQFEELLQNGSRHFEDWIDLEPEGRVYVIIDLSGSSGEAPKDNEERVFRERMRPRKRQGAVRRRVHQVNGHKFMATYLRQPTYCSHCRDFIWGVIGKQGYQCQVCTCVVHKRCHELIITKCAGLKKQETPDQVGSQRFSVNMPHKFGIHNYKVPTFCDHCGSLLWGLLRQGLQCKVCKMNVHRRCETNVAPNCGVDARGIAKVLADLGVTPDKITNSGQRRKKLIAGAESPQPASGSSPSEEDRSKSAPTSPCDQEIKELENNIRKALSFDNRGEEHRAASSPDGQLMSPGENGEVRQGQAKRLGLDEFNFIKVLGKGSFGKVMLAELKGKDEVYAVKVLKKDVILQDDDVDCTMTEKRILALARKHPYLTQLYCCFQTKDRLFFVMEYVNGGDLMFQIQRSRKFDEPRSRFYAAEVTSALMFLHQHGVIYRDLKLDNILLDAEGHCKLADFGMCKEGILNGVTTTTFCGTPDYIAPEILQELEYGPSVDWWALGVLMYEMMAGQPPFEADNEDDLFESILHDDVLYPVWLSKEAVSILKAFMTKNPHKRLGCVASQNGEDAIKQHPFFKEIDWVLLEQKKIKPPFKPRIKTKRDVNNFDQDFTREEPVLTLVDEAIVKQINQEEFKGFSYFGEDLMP

For assay [2], the target named is FGFR4(h) (Homo sapiens, UniProt P22455).
The target in assay [3] is cSRC(h) (Homo sapiens, UniProt P12931).
Assay [4] deals with T2, TBK1(h) (Homo sapiens, UniProt Q9UHD2).
T2 sequence (Q9UHD2 1-729): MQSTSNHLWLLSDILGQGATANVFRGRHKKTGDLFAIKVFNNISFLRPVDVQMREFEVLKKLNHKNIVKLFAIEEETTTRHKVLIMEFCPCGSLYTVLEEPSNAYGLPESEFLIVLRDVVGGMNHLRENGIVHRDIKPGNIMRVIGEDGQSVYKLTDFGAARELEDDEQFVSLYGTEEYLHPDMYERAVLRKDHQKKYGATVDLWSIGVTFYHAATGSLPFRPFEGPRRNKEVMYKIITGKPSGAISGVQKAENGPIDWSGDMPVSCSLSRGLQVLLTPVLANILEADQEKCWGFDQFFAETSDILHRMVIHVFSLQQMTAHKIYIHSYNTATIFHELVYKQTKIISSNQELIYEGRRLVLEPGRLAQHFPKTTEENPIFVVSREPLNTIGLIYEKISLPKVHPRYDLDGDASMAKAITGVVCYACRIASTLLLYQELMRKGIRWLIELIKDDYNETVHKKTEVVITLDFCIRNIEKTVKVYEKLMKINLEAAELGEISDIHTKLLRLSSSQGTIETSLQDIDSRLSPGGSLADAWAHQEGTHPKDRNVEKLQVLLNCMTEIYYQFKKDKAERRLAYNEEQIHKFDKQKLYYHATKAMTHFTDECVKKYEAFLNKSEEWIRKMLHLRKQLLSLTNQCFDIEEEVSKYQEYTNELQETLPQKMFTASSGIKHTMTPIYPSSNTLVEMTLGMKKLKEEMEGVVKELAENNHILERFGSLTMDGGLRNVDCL

Chain of FGFR4(h) (P22455 22-802): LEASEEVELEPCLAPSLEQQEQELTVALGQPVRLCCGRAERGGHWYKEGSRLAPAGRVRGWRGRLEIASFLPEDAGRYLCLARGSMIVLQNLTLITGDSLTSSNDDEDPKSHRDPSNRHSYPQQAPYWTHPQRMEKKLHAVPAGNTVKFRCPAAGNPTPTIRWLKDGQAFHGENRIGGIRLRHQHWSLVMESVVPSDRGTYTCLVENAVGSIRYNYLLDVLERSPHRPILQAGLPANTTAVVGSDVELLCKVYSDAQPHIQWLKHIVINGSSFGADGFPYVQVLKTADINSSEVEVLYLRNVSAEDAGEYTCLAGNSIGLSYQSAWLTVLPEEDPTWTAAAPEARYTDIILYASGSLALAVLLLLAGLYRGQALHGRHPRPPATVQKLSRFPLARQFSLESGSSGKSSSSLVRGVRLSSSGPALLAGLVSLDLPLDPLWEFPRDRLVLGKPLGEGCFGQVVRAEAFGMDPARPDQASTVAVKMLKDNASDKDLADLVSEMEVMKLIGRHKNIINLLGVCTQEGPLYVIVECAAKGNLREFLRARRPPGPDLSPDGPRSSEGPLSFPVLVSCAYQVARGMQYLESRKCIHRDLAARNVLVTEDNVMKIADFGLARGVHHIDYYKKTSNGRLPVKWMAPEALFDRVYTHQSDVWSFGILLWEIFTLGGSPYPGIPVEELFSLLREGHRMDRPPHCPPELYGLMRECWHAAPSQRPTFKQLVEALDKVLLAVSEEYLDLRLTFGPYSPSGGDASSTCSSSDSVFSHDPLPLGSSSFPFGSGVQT
Chain of cSRC(h) (P12931 whole entry): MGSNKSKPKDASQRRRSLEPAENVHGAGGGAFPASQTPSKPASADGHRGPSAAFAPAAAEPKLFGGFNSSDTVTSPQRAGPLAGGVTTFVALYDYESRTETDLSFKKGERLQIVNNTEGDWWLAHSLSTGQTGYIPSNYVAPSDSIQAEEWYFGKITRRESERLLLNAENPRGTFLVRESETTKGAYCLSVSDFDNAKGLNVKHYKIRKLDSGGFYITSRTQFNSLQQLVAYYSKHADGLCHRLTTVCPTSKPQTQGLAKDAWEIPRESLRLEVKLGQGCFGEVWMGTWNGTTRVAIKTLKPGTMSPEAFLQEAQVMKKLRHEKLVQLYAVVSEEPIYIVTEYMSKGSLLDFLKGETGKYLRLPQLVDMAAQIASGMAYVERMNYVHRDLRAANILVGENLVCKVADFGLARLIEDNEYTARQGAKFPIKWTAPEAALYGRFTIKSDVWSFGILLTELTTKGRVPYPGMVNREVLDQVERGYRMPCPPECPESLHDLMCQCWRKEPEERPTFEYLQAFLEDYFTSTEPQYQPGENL

In the case of `CC(C)CCC(=O)[C@]1(O)C(O)=C(C(=O)C(C)C)C(=O)[C@H]1CCC(C)C` [TH2, tetrahydroiso-cohumulone], the kinase inhibition is reported as 105% of control in assay [1] (1 μg/ml); 102% of control in assay [1] (5 μg/ml); 98% of control in assay [1] (25 μg/ml); 102% of control in assay [1] (50 μg/ml); 90% of control in assay [1] (100 μg/ml); 89% of control in assay [2] (1 μg/ml). Moreover, the kinase inhibition was 81% of control in assay [2] (5 μg/ml); 55% of control in assay [2] (25 μg/ml); 64% of control in assay [2] (50 μg/ml); 55% of control in assay [2] (100 μg/ml); 114% of control in assay [3] (1 μg/ml); 114% of control in assay [3] (5 μg/ml). The kinase inhibition in assay [3] (25 μg/ml) is 108% of control; in assay [3] (50 μg/ml) it was 101% of control; in assay [3] (100 μg/ml), 87% of control; in assay [4] (1 μg/ml), 108% of control; in assay [4] (5 μg/ml), 107% of control; in assay [4] (25 μg/ml), 97% of control. The kinase inhibition in assay [4] (50 μg/ml) is 86% of control; in assay [4] (100 μg/ml) it was 70% of control.
